Marks after values point to notes of the source that are not given here.
Columns and labels:
Lung cancer H1299 cells = test: In vitro antitumor activity test (MTT), H1299; format: cell-based; conditions: Homo sapiens, NCI-H1299, 24 h
Experimental: (§1) 13 human tumor cell lines were selected and cultured in RPMI-1640 medium (Gibco company) containing 10% inactivated fetal bovine serum, 100 U/ml penicillin and 100 U/ml streptomycin, cultured at 37° C. in a 5% CO2 incubator, and passaged once every 2 days. Using the MTT method, cells in the logarithmic growth phase were digested with 0.25% trypsin, centrifuged at 1000 r/min for 5 min, 8×10^3 cells were added to each well, and seeded in a 96-well plate, and 180 μl of cell suspension was added to each well, and a blank was set at the same time. The 96-well plate inoculated with tumor cells was placed in a carbon dioxide incubator for 24 hours, and then 20 μl of the drug was added, and an equal volume of culture medium was added to the blank control well, and the drug was divided into 8 concentrations from 50 μg/L to 0.4 μg/L. Three duplicate wells were set for each drug concentration and placed in an incubator for 24 h. 10 μl of MTT solution (5 mg/ml) was added to each well, and the culture was continued for 4 h. The supernatant was aspirated and discarded, 100 μl of dimethyl sulfoxide (DMSO) solution was added to each well, placed on a micro shaker for 10 min, and the absorbance (A value) was measured at a wavelength of 492 nm in a microplate reader, and the inhibition rate of the drug on tumor cells was calculated according to the following formula.
(§2) In this test, the IC50 value of the compound on tumor cells was calculated by the Origin software according to the inhibition rate of the compound. AC-201 in the following table was the abbreviation of PL-AC-201, and so on.

human red blood cells = test: Detection of hemolytic activity; format: cell-based
Experimental: 2-3 ml of human blood was drawn using an anticoagulant tube, thoroughly mixed, and kept at 4° C. for later use. 2 ml of blood was aspirated and added with 2-3 ml of PBS, followed by gently pipetting and centrifugation for 5 min at 1000 rpm, which was repeated 3-4 times. After the last centrifugation, PBS was aspirated, PBS was added to 40 ml (20 times the volume), and the number of blood cells at this time was 2×10^8 cells/ml. The red blood cell suspension was added to the plate (U-shaped 96-well plate), and 70 μl/well was used as a negative well. Only PBS was added to blank wells, 140 μl/well. 2 ml of the red blood cell suspension was centrifuged, PBS was discarded, 2 ml of pure water was added, mixed well, and 140 μl/well was used as a positive well. The diluted polypeptide solutions of different concentrations were added to the plate, 70 μl/well. Incubated at 37° C., 87 rpm, shaken for 2h, centrifuged for 5 min at 3000 rpm. The OD value measured by microplate reader: After centrifugation, 90 μl of supernatant was drawn and transferred to a flat-bottom 96-well plate, and the OD value at 578 nm was measured by microplate reader. ODtest-OD negative >0.1 (the first concentration that met the conditions was MHC).

Melanoma B16 cells = test: In vitro antitumor activity test (MTT), B16; format: cell-based; conditions: 24 h
Experimental: as §1, §2

Lung cancer H292 cells = test: In vitro antitumor activity test (MTT), H292; format: cell-based; conditions: Homo sapiens, NCI-H292, 24 h
Experimental: as §1, §2

[1] = test system: Breast cancer MCF-7 cells; test: In vitro antitumor activity test (MTT), MCF-7; format: cell-based; conditions: Homo sapiens, MCF7; Breast cancer MCF-7, MTT, 24 h
Experimental: as §1, §2

[2] = test system: Cervical cancer Hela cells; test: In vitro antitumor activity test (MTT), Hela; format: cell-based; conditions: Homo sapiens, 24 h
Experimental: as §1, §2

HepG-2 liver tumors = test: Transplanted tumor in nude mice, intraperitoneal, HepG-2; format: in vivo, BALB/c nude mice; conditions: 8 administrations; for Tumor inhibition rate / Tumor weight: HepG-2, 5 mg/kg i.p. once every 3 days; for Body Weight After administration: HepG-2 tumor-bearing BALB/c mice, 5 mg/kg i.p. once every 3 days
Experimental: (§3) BALB/c nude mice were used to inoculate Bel-7402, HepG-2 and SK-hep1 liver tumors according to the transplanted tumor research method under aseptic operation, and the cell density was not less than 5×10^6/ml, 0.2 ml was inoculated subcutaneously in the axilla of the right hind limb of each mouse. After the cells were inoculated, the cells were administered intraperitoneally (concentration: 5 mg/kg), once every 3 days, for a total of 8 administrations. After the 2nd day of drug withdrawal, all tumor-bearing mice were sacrificed, and their body weight, tumor weight and tumor inhibition were weighed.

Bel-7402 liver tumors = test: Transplanted tumor in nude mice, intraperitoneal, Bel-7402; format: in vivo, BALB/c nude mice; conditions: 8 administrations; for Tumor inhibition rate / Tumor weight: Bel-7402, 5 mg/kg i.p. once every 3 days; for Body Weight After administration: Bel-7402 tumor-bearing BALB/c mice, 5 mg/kg i.p. once every 3 days
Experimental: as §3

[3] = test system: 13 human tumor cell lines; test: Average IC50 over the tumor cell lines (MTT); format: cell-based; conditions: mean IC50 for each tumor, read-out: AverageIC50
Experimental: as §1, §2
The ratio of the hemolytic concentration MHC of the compound to the mean IC50 for each tumor was referred to as the therapeutic index (TI). The safety of the compound was evaluated by the therapeutic index. The higher the therapeutic index, the greater the safety range of the compound.

[4] = test system: Pancreatic cancer Bxpc-3 cells; test: In vitro antitumor activity test (MTT), Bxpc-3; format: cell-based; conditions: Homo sapiens; Pancreatic cancer Bxpc-3, MTT, 24 h
Experimental: as §1, §2

SK-hep1 liver tumors = test: Transplanted tumor in nude mice, intraperitoneal, SK-hep1; format: in vivo, BALB/c nude mice; conditions: 8 administrations; for Tumor inhibition rate / Tumor weight: SK-hep1, 5 mg/kg i.p. once every 3 days; for Body Weight After administration: SK-hep1 tumor-bearing BALB/c mice, 5 mg/kg i.p. once every 3 days
Experimental: as §3

Lung cancer H460 cells = test: In vitro antitumor activity test (MTT), H460; format: cell-based; conditions: Homo sapiens, NCI-H460, 24 h
Experimental: as §1, §2

[5] = test system: Liver cancer SK-hep1 cells; test: In vitro antitumor activity test (MTT), SK-hep1; format: cell-based; conditions: Homo sapiens, 24 h
Experimental: as §1, §2

[6] = test system: Liver cancer Bel-7402 cells; test: In vitro antitumor activity test (MTT), Bel-7402; format: cell-based; conditions: Homo sapiens; Liver cancer Bel-7402, MTT, 24 h
Experimental: as §1, §2

Colon cancer HT29 cells = test: In vitro antitumor activity test (MTT), HT29; format: cell-based; conditions: Homo sapiens, HT-29, 24 h
Experimental: as §1, §2

[7] = Acute toxicity test of single administration to ICR mice; conditions: mouse, in vivo, intravenous, single tail vein injection, observed 7 days
Experimental: ICR mice, 18-22 g, were raised in a common-grade animal room, fed with common feed, and ingested freely. The group distance and dose were determined after exploring the Dm and Dn of the compounds of the examples. Five concentrations of the compounds of the examples were formulated at the desired dose. The corresponding doses of drugs were injected into the tail vein according to body weight, and the blank control group was injected with normal saline. Immediately after administration, the performance and death of each animal were observed and recorded, and the possible toxic reaction or death of animals within 7 days after a single administration was observed and recorded.

[8] = test system: Liver cancer HepG-2 cells; test: In vitro antitumor activity test (MTT), HepG-2; format: cell-based; conditions: Homo sapiens, HepG2; Liver cancer HepG-2, MTT, 24 h
Experimental: as §1, §2

Lung cancer A549 cells = test: In vitro antitumor activity test (MTT), A549; format: cell-based; conditions: Homo sapiens, 24 h
Experimental: as §1, §2

[9] = test system: Human osteosarcoma MG63 cells; test: In vitro antitumor activity test (MTT), MG63; format: cell-based; conditions: MG-63, 24 h
Experimental: as §1, §2

[10] = human red blood cells, 37° C., 2h, first concentration with ODtest-OD negative >0.1

Row | SMILES | IC50 (Lung cancer H1299 cells) [nM] | MHC (human red blood cells; hemolytic concentration, in nM) [nM] | MHC (human red blood cells; [10]) [µg/mL] | IC50 (Melanoma B16 cells) [nM] | IC50 (Lung cancer H292 cells) [nM] | IC50 [1] [nM] | IC50 [2] [nM] | Tumor inhibition rate (HepG-2 liver tumors) | Tumor weight (HepG-2 liver tumors) [mg] | Body Weight After administration (HepG-2 liver tumors) [g] | IC50 [3] [nM] | IC50 [4] [nM] | IC50 (Lung cancer H460 cells) [nM] | IC50 [5] [nM] | IC50 [6] [nM] | IC50 (Colon cancer HT29 cells) [nM] | LD50 at 7 days [7] [mg/kg] | IC50 [8] [nM] | IC50 (Lung cancer A549 cells) [nM] | IC50 [9] [nM] | also measured
1 | CC1(C)CC(NC(=O)C(Cc2ccc(-c3ccccc3)cc2)NC(=O)c2cc3ccccc3n2Cc2ccccc2)CC(C)(C)N1 (centres unmarked) [PL-AC-15, reference compound] | 24.4 | 1.6e+06 | 1000 | 30.5 | 28.3 | 23.2 | 19.7 | 66.7** % | 549.9 ± 10.2 | 23.8 ± 1.0 | 32 | 48.9 | 22 | 26.4 | 81.7 | 38.2 | 23.6 | 16.2 | 31.2 | 25.8 | Tumor inhibition rate (Bel-7402 liver tumors): 61.8** %; Tumor weight (Bel-7402 liver tumors): 302.9 ± 0.8 mg; Body Weight After administration (Bel-7402 liver tumors): 25.2 ± 1.1 g; Tumor inhibition rate (SK-hep1 liver tumors): 60.6** %; Tumor weight (SK-hep1 liver tumors): 441.5 ± 10.8 mg; Body Weight After administration (SK-hep1 liver tumors): 23.2 ± 0.3 g
2 | CC(=O)Oc1ccccc1C(=O)NC(Cc1ccc(-c2ccccc2)cc1)C(=O)NC1CC(C)(C)NC(C)(C)C1 (centres unmarked) [PL-AC-201] | 23.7 | 5.8e+06 | 3000 | 29.8 | 22.3 | 24.3 | 19.5 | 69.3** % | 506.9 ± 9.4 | 22.9 ± 1.4 | 28.2 | 52.1 | 21.9 | 16.2 | 50.2 | 35.9 | 27.2 | 16.1 | 29.9 | 24.8 | Tumor inhibition rate (Bel-7402 liver tumors): ^ΔΔ66.2** %; Tumor weight (Bel-7402 liver tumors): 268.1 ± 9.6 mg; Body Weight After administration (Bel-7402 liver tumors): 23.2 ± 1.0 g; Tumor inhibition rate (SK-hep1 liver tumors): 61.2** %; Tumor weight (SK-hep1 liver tumors): 434.7 ± 9.4 mg; Body Weight After administration (SK-hep1 liver tumors): 23.7 ± 1 g
3 | COc1ccc2cc(C(C)C(=O)NC(Cc3ccc(-c4ccccc4)cc3)C(=O)NC3CC(C)(C)NC(C)(C)C3)ccc2c1 (centres unmarked) [PL-AC-202] | 19.8 | 5.1e+06 | 3000 | 28.4 | 20.1 | 21.1 | 16.1 | ^ΔΔ75.4** % | 406.2 ± 5.9 | 22.8 ± 0.8 | 24 | 35.1 | 18.5 | 11.5 | 45.6 | 32.5 | 34.8 | 15.8 | 23.2 | 24.1 | Tumor inhibition rate (Bel-7402 liver tumors): ^ΔΔ73.1** %; Tumor weight (Bel-7402 liver tumors): 213.3 ± 9.3 mg; Body Weight After administration (Bel-7402 liver tumors): 22.9 ± 1.1 g; Tumor inhibition rate (SK-hep1 liver tumors): ^ΔΔ71.7** %; Tumor weight (SK-hep1 liver tumors): 317.1 ± 8.7 mg; Body Weight After administration (SK-hep1 liver tumors): 24.9 ± 1.0 g
4 | C/C(=C1/c2ccc(F)cc2C(CC(=O)NC(Cc2ccc(-c3ccccc3)cc2)C(=O)NC2CC(C)(C)NC(C)(C)C2)C1C)c1ccc([S+](C)[O-])cc1 (centres unmarked) [PL-AC-204] | 21.6 | 4.1e+06 | 3000 | 30.5 | 27.6 | 23.1 | 19.2 | 65.1** % | 576.3 ± 10.7 | 23.1 ± 1.0 | 28.1 | 49.4 | 21.6 | 23.6 | 40.7 | 37.4 | 29.9 | 15.9 | 29.8 | 24.5 | –

— US12552747B2, “Amino acid derivative containing non-steroidal anti-inflammatory drug structure and preparation method and application thereof” (priority 2020, dated 2026)
